Laboratory results published in ChEMBL document CHEMBL1137401, “Structure-activity relationship studies on a novel series of (S)-2beta-substituted 3alpha-[bis(4-fluoro- or 4-chlorophenyl)methoxy]tropane analogues for in vivo investigation” (J Med Chem, 2006).
The source made the active and inactive calls. No cut-off for these calls is given here.

Experiments:
[1] = target: Norepinephrine transporter (Rattus norvegicus, UniProt Q9WTR4); experiment: Displacement of [3H]nisoxetine from NET in Sprague-Dawley rat brain; format: tissue-based
Chain of Norepinephrine transporter (Q9WTR4 whole entry): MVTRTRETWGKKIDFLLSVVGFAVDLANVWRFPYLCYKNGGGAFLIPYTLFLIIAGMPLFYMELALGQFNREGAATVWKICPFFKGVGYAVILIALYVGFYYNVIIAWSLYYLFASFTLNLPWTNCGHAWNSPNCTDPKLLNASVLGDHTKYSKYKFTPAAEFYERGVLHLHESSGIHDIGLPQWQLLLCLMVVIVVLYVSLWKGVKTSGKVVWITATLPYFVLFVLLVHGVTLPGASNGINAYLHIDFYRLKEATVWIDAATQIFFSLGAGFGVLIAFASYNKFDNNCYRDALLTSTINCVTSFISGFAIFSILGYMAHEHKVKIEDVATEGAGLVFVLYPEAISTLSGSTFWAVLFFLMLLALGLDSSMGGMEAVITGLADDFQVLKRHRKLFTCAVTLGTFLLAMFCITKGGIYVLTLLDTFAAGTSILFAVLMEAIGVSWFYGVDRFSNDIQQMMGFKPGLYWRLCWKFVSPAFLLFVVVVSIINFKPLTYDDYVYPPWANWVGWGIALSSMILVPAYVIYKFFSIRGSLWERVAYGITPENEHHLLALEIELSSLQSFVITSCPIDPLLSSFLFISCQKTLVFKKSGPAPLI

Rattus norvegicus [2] = species: Rattus norvegicus; experiment: Selectivity for Sprague-Dawley rat DAT over rat M1 receptor
[3] = target: Sodium-dependent serotonin transporter (Rattus norvegicus, UniProt P31652); experiment: Displacement of [3H]citalopram from SERT in Sprague-Dawley rat brain; format: tissue-based
Chain of Sodium-dependent serotonin transporter (P31652 whole entry): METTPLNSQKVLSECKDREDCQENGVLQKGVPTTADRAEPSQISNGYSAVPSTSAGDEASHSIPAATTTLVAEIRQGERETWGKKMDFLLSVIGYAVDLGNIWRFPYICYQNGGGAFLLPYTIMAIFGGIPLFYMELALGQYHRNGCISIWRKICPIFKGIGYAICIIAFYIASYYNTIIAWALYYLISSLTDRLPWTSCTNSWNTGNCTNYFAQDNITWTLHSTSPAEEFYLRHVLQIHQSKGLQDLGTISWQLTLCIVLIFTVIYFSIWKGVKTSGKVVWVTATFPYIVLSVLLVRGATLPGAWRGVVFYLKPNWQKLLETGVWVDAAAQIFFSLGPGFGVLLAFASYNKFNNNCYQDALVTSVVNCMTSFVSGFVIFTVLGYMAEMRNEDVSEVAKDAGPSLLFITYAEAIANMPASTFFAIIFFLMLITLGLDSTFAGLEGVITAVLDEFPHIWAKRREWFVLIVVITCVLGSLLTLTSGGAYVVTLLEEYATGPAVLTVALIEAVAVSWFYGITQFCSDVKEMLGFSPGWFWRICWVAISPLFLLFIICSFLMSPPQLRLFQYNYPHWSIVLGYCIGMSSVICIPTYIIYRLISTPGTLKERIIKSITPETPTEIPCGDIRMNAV

[4] = target: T1, Muscarinic acetylcholine receptor M1 (Rattus norvegicus, UniProt P08482); experiment: Displacement of [3H]pirenzepine from M1 receptor in Sprague-Dawley rat brain
T1 sequence (P08482 whole entry): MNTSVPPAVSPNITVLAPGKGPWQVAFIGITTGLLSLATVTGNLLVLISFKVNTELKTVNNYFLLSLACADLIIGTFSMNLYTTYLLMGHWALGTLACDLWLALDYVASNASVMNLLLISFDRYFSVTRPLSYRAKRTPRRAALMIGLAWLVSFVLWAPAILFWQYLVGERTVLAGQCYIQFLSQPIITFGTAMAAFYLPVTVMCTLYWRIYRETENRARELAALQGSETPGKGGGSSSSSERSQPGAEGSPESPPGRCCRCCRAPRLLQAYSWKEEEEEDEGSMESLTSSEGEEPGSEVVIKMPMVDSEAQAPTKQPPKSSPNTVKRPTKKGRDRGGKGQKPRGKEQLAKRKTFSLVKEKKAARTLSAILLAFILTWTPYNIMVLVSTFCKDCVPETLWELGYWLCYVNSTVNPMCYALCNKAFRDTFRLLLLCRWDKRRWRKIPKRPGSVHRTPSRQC

Rattus norvegicus [5] = species: Rattus norvegicus; experiment: Drug discriminative activity in Sprague-Dawley rat measured as response on cocaine-appropriate lever; format: functional
[6] = target: T2, Sodium-dependent dopamine transporter (Rattus norvegicus, UniProt P23977); experiment: biochemical; format: tissue-based, Sprague-Dawley, Brain
T2 sequence (P23977 whole entry): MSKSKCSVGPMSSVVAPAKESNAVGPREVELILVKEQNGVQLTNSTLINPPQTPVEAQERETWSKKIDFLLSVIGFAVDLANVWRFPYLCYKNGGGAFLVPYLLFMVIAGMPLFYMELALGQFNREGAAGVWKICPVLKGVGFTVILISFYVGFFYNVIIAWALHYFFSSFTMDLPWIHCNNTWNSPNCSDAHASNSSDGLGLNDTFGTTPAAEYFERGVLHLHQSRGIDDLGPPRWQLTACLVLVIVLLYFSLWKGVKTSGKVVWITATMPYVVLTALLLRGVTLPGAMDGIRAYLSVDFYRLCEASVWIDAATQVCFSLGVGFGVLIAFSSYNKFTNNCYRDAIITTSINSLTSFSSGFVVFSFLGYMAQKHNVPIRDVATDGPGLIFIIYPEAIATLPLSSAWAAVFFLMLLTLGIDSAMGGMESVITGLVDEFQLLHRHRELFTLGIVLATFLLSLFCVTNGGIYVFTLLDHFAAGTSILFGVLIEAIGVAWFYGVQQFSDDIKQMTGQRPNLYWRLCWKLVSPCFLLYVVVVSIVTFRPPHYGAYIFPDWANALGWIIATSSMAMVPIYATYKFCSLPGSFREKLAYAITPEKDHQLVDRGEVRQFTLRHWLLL
Description: Displacement of [3H]WIN-35428 from DAT in Sprague-Dawley rat brain

[7] = target: T2, Sodium-dependent dopamine transporter; experiment: Inhibition of [3H]dopamine uptake at DAT in Sprague-Dawley rat brain

Structure (SMILES)	Ki [1] [µM]	Ratio Ki (Rattus norvegicus [2])	further results
C=CCN1C2CCC1[C@@H](C(=O)OCC)[C@@H](OC(c1ccc(F)cc1)c1ccc(F)cc1)C2 (stereo partly specified)	0.935	1040	
CN1C2CCC1[C@@H](COC(=O)CCCc1ccc([N+](=O)[O-])cc1)[C@@H](OC(c1ccc(F)cc1)c1ccc(F)cc1)C2 (stereo partly specified)	2.13	18	Ki [3]: 3.78 µM; Ki [4]: 0.708 µM
CN1C2CCC1CC(OC(c1ccc(F)cc1)c1ccc(F)cc1)C2 (stereo unspecified) [DIFLUOROBENZTROPINE]			Activity (Rattus norvegicus [5]): 65%
COC(=O)[C@@H]1C2CCC(C[C@@H]1OC(c1ccc(F)cc1)c1ccc(F)cc1)N2C (stereo partly specified)		45	
CN1C2CCC1[C@@H](COC(=O)CCCc1ccc(N)cc1)[C@@H](OC(c1ccc(F)cc1)c1ccc(F)cc1)C2 (stereo partly specified)	0.44	12	
CCOC(=O)[C@@H]1C2CCC(C[C@@H]1OC(c1ccc(F)cc1)c1ccc(F)cc1)N2 (stereo partly specified)	0.563	1930	
COC(=O)C1C(OC(c2ccc(Cl)cc2)c2ccc(Cl)cc2)CC2CCC1N2C (racemic)			Activity (Rattus norvegicus [5]): inactive
COC(=O)[C@@H]1C2CCC(C[C@@H]1OC(c1ccc(Cl)cc1)c1ccc(Cl)cc1)N2C (stereo partly specified)	2.15	30	Ki [6]: 0.0126 µM; IC50 [7]: 0.00246 µM; Ki [3]: 0.528 µM; Ki [4]: 0.382 µM
COC(=O)CC[C@@H]1C2CCC(C[C@@H]1OC(c1ccc(F)cc1)c1ccc(F)cc1)N2C (stereo partly specified)	0.454	832	
CN1C2CCC1[C@@H](CO)[C@@H](OC(c1ccc(F)cc1)c1ccc(F)cc1)C2 (stereo partly specified)	0.983	31	Ki [6]: 0.0034 µM
CCCCN1C2CCC1[C@@H](C(=O)OCC)[C@@H](OC(c1ccc(F)cc1)c1ccc(F)cc1)C2 (stereo partly specified)	0.58	391	
CCOC(=O)[C@@H]1C2CCC(C[C@@H]1OC(c1ccc(F)cc1)c1ccc(F)cc1)N2C (stereo partly specified)		275	
C=C[C@@H]1C2CCC(C[C@@H]1OC(c1ccc(F)cc1)c1ccc(F)cc1)N2C (stereo partly specified)	0.473	90	
CCOC(=O)[C@@H]1C2CCC(C[C@@H]1OC(c1ccc(Cl)cc1)c1ccc(Cl)cc1)N2C (stereo partly specified)	3.35		Ki [6]: 0.0146 µM; IC50 [7]: 0.00152 µM; Ki [3]: 1.56 µM; Ki [4]: 3.06 µM
COC(=O)/C=C/[C@@H]1C2CCC(C[C@@H]1OC(c1ccc(F)cc1)c1ccc(F)cc1)N2C (stereo partly specified)	0.269	294	
